Where two headings read alike, the source gives them in different places.
Experiments:
[1] = test system: rat heart; conditions: conditions of hypoxia, Vitamin C alone; cited from earlier work
[2] = oral administration; cited from earlier work
[3] = test system: MCF7 cells; assay: Metabolic flux analysis (Seahorse XFe96, OCR and ECAR); assay type: cell-based, human; conditions: MCF7 monolayers pre-treated 3-days, doxycycline 1 μM, azithromycin 1 μM, Vitamin C 250 μM as applicable
Method: Metabolic Flux Analysis: Real-time oxygen consumption rates (OCR) and extracellular acidification rates (ECAR) rates in MCF7 cells were determined using the Seahorse Extracellular Flux (XFe96) analyzer (Seahorse Bioscience, USA). Briefly, 1.5×10^4 cells per well were seeded into XFe96 well cell culture plates, and incubated overnight to allow cell attachment. Then, cells were treated with antibiotics for 72 h. Vehicle-alone control cells were processed in parallel. After 72 hours of incubation, cells were washed in pre-warmed XF assay media (or for OCR measurement, XF assay media supplemented with 10 mM glucose, 1 mM Pyruvate, 2 mM L-glutamine and adjusted at 7.4 pH). Cells were then maintained in 175 μL/well of XF assay media at 37° C., in a non-CO2 incubator for 1 hour. During the incubation time, we loaded 25 μL of 80 mM glucose, 9 μM oligomycin, and 1M 2-deoxyglucose (for ECAR measurement) or 10 μM oligomycin, 9 μM FCCP, 10 μM rotenone, 10 μM antimycin A (for OCR measurement), in XF assay media into the injection ports in the XFe96 sensor cartridge. Measurements were normalized by protein content (Bradford assay). Data sets were analyzed using XFe96 software and GraphPad Prism software, using one-way ANOVA and Student's t-test calculations. All experiments were performed in quintuplicate, three times independently.

[4] = test system: MCF7 cells; assay: Mammosphere formation assay (CSC propagation); assay type: cell-based, human; conditions: for inhibition at 250 µM: suspension treatment 5-days, doxycycline 1 μM, azithromycin 1 μM, Vitamin C 250 μM, read-out: MFE (% Inhibition ± SD); for IC50: MCF7 cells (FIG. 15), read-out: half maximal inhibitory concentration (IC50), mammosphere assay
Method: The following paragraphs discuss laboratory data and analysis for select embodiments of the present approach. Doxycycline and azithromycin were tested alone and in combination at low concentrations to evaluate the resulting inhibitory effect on mammosphere formation. FIGS. 1A-1C summarize mammosphere formation data for varying concentrations and combinations.
The temporal effects of pre-treatment on the efficacy of the present approach have been evaluated in the pre-clinical setting, using CSC propagation as the measurement. […] This may be due to MCF7 cells' ability to induce oxidative stress, driving an anti-oxidant response. Given these […] results, it appears embodiments of the present approach that simultaneously co-administer all three therapeutic agents appear to have the most significant impact on the CSC population, and are preferred. […] However, some embodiments may call for administering therapeutic agents within a narrow window, such as 1-3 hours, over multiple days (e.g., 3-7 days in some embodiments, 4-14 days in some embodiments). The antibiotics may be administered in oral form (e.g., pill or tablet), while the Vitamin C is administered intravenously in some embodiments. In others, all three therapeutic agents may be administered orally, either as separate pills or tabs, or as a single concoction containing each therapeutic agent.
Mammosphere Formation Assay: A single cell suspension was prepared using enzymatic (lx Trypsin-EDTA, Sigma Aldrich, #T3924), and manual disaggregation (25 gauge needle). Cells were plated at a density of 500 cells/cm2 in mammosphere medium (DMEM-F12+B27+20 ng/ml EGF+PenStrep) under non-adherent conditions, in culture dishes pre-coated with (2-hydroxyethylmethacrylate) (poly-HEMA, Sigma, #P3932), called “tumor-sphere plates”. Vehicle alone (DMSO) control cells were processed in parallel. Cells were grown for 5 days and maintained in a humidified incubator at 37° C. After 5 days of culture, 3D mammospheres >50 μm were counted using an eye piece (“graticule”), and the percentage of cells plated which formed spheres was calculated and is referred to as percent mammosphere formation (MFE, and was normalized to one (1=100% MSF).

[5] = test system: U937 cells; conditions: 15 minutes, media containing 3 μM Vitamin C; cited from earlier work
[6] = test system: senescent fibroblasts; assay: Senolytic activity on senescent fibroblasts; assay type: cell-based; conditions: azithromycin by itself
From the text: Embodiments of the present approach also have implications for improving health-span and life-span. Azithromycin, by itself, is an FDA-approved drug with remarkable senolytic activity that targets and removes senescent fibroblasts, such as myo-fibrobasts. This senolytic activity has considerable efficiency, approaching nearly 97%. The accumulation of pro-inflammatory senescent cells is thought to be the primary cause of many aging-associated diseases, such as heart disease, diabetes, dementia and cancer, for example. Since cancer-associated fibroblasts (CAFs) are senescent myo-fibroblasts, with tumor promoting activity, triple combination embodiments of the present approach with Azithromycin may also effectively target the glycolytic tumor stroma of aggressive and metastatic cancers, especially those bearing the metabolic hallmarks of the “Reverse Warburg Effect.” In some embodiments, the composition prevents acquisition of a senescence-associated secretory phenotype. In some embodiments, the composition facilitates tissue repair and regeneration. In some embodiments, the composition increases at least one of organismal life-span and health-span.

[7] = test system: CSCs; assay: CSC propagation / CSC inhibition activity (cell line not stated); assay type: cell-based
[8] = test system: bulk BJ cells; assay: Cell viability, bulk BJ cells; assay type: cell-based, human; conditions: bulk BJ cells (normal fibroblasts); range of concentrations, up to 20 μM
Method: Bromodeoxyuridine (5-bromo-2′-deoxyuridine), also known as BrdU, was used to induce senescence. BrdU is an analog of the nucleoside thymidine commonly used to identify proliferating cells. BrdU induces controlled DNA damage, and drives cells towards senescence with high efficiency. The BrdU assay of the present approach calls for subjecting normal fibroblasts to prolonged culture (8-days) in the presence of BrdU at 100 μM to induce controlled DNA-damage and senescence. […] Then, isogenically-matched cultures of normal and senescent fibroblasts may be used for drug screening to identify drugs having senolytic activity. Senolytic activity may be detected using the sulforhodamine B assay, also known in the art as the SRB assay. This assay measures the amount of protein remaining attached to the tissue-culture dishes, and is a surrogate marker for cell viability. This approach may be used to rapidly screen compounds, including clinically-approved drugs, such as, for example, antibiotics. […]
Embodiments of therapeutic agents conjugated with targeting signals have shown less toxicity in bulk cancer cells and normal fibroblasts compared to unconjugated therapeutic agents. […] The data represents cell viability expressed as a percentage of a control. […]

[9] = test system: bulk MCF7 cells; assay: Cell viability, bulk MCF7 cells; assay type: cell-based, human; conditions: range of concentrations, up to 20 μM
From the text: Embodiments of therapeutic agents conjugated with targeting signals have shown less toxicity in bulk cancer cells and normal fibroblasts compared to unconjugated therapeutic agents. For example, FIGS. 17A and 17B show cell viability data for doxycycline and the doxycycline-myristate conjugate shown as compound [1], for bulk MCF7 cells and bulk BJ cells, respectively. The data represents cell viability expressed as a percentage of a control. […] Similar behavior has been seen in other therapeutic agents conjugated with targeting signals.

[10] = test system: senescent MRC-5 cells; assay: BrdU-induced senescence senolytic assay (SRB / xCELLigence); assay type: cell-based, human; conditions: BrdU-treated MRC-5 fibroblasts; even at concentrations as low as 25 μM
Method: Bromodeoxyuridine (5-bromo-2′-deoxyuridine), also known as BrdU, was used to induce senescence. BrdU is an analog of the nucleoside thymidine commonly used to identify proliferating cells. BrdU induces controlled DNA damage, and drives cells towards senescence with high efficiency. The BrdU assay of the present approach calls for subjecting normal fibroblasts to prolonged culture (8-days) in the presence of BrdU at 100 μM to induce controlled DNA-damage and senescence. […] Then, isogenically-matched cultures of normal and senescent fibroblasts may be used for drug screening to identify drugs having senolytic activity. Senolytic activity may be detected using the sulforhodamine B assay, also known in the art as the SRB assay. This assay measures the amount of protein remaining attached to the tissue-culture dishes, and is a surrogate marker for cell viability. This approach may be used to rapidly screen compounds, including clinically-approved drugs, such as, for example, antibiotics. For example, in embodiments described herein, the present approach was used to screen erythromycin family members, including azithromycin and roxithromycin, among other compounds and conjugates. It should be appreciated that the present approach may be used to screen other compounds.

## O=C1O[C@H]([C@@H](O)CO)C(O)=C1O [Vitamin C, Ascorbic Acid]
[1]
  increase of mitochondrial ATP production: up to 1.5 fold
[2]
  peak Vitamin C concentration in blood/serum/plasma: about 250 μM
[3]
  ATP production / ATP levels: significantly increased
  basal and maximal respiration: significantly increased
  glycolysis / glycolytic function (ECAR): significantly increased
  glycolytic reserve: significantly increased
  glycolytic reserve capacity: decreasing
  oxidative mitochondrial metabolism (OCR, mitochondrial oxygen consumption): significantly increased
[3]; listed as low-dose Vitamin C
  ATP production / ATP levels: increased
  basal and maximal respiration: increased
  glycolysis / glycolytic function (ECAR): increased
  oxidative mitochondrial metabolism (OCR, mitochondrial oxygen consumption): increases
[4]; Homo sapiens, MCF7, Monolayer pre-treatment D + A 7-days
  inhibition at 250 µM: 39.1%
[4]; Homo sapiens, MCF7, Monolayer pre-treatment Vit C 7-days
  inhibition at 250 µM: 49.2%
[5]
  Vitamin C level reached in the mitochondria: 5 mM

## CC[C@H]1OC(=O)[C@H](C)[C@@H](O[C@H]2C[C@@](C)(OC)[C@@H](O)[C@H](C)O2)[C@H](C)[C@@H](O[C@@H]2O[C@H](C)C[C@H](N(C)C)[C@H]2O)[C@](C)(O)C[C@@H](C)CN(C)[C@H](C)[C@@H](O)[C@]1(C)O [azithromycin]
[4]; alone at low concentrations (0.1 μM and 1 μM)
  inhibition of mammosphere formation: little or no effect
[6]
  senolytic activity, efficiency of removing senescent fibroblasts: ~97%

## CCCCCCCCCCCCCC(=O)Nc1ccc2c(c1O)C(=O)C1=C(O)[C@]3(O)C(=O)C(C(N)=O)=C(O)[C@@H](N(C)C)C3[C@@H](O)C1[C@H]2C (stereo partly drawn) [doxycycline-myristate conjugate, (4S,5S,6R,12aS)-4-(dimethylamino)-3,5,10,12,12a-pentahydroxy-6-methyl-1,11-dioxo-9-(tetradecanoylamino)-4a,5,5a,6-tetrahydro-4H-tetracene-2-carboxamide]
[7]; fatty acid moiety is myristate (n is 12)
  CSC inhibition activity compared with the unconjugated antibiotic: better CSC inhibitory properties
[4]; Homo sapiens, MCF7, 2.5 μM, read-out: inhibition of MCF7 mammosphere formation relative to the control
  inhibition at 2.5 µM: 40 to 60%
[4]; Homo sapiens
  IC50: 3.46 µM
[4]; MCF7, 1.5 μM, 3 μM, 6 μM, 12 μM
  potency in mammosphere assay compared with doxycycline (FIG. 14): more potent than unconjugated doxycycline
[8]
  toxicity (cell viability as percentage of control): less toxic than doxycycline
[9]
  toxicity (cell viability as percentage of control): less toxic than doxycycline

## CCCCCCCCCCCCCC(=O)N(C)[C@H]1C[C@@H](C)O[C@@H](O[C@@H]2[C@@H](C)[C@H](O[C@@H]3C[C@@](C)(OC)[C@@H](O)[C@H](C)O3)[C@@H](C)C(=O)O[C@H](CC)[C@@](C)(O)[C@H](O)[C@@H](C)N(C)C[C@H](C)C[C@@]2(C)O)[C@@H]1O [azithromycin—fatty acid conjugate, N-[(2S,3R,4S,6R)-2-[ [(2R,3S,4R,5R,8R,10R,11R,12S,13S,14R)-2-ethyl-3,4,10-trihydroxy-13-[(2S,4R,5S,6S)-5-hydroxy-4-methoxy-4,6-dimethyl-tetrahydropyran-2-yl]oxy-3,5,6,8,10,12,14-heptamethyl-15-oxo-1-oxa-6-azacyclopentadec-11-yl]oxy]-3-hydroxy-6-methyl-tetrahydropyran-4-yl]-N-methyl-tetradecanamide]
[10]
  senescent MRC-5 cells targeted (final cell index after 5 days, xCELLigence): ~100%

## C[C@H]1c2cccc(O)c2C(=O)C2=C(O)[C@]3(O)C(=O)C(C(N)=O)=C(O)[C@@H](N(C)C)[C@@H]3[C@@H](O)[C@@H]21 [doxycycline]
[4]; Homo sapiens
  IC50: 18.1 µM

## CCCCCCCCCCCCCC(=O)N(C)[C@H]1C[C@@H](C)O[C@@H](O[C@@H]2[C@@H](C)[C@H](O[C@H]3C[C@@](C)(OC)[C@@H](O)[C@H](C)O3)[C@@H](C)C(=O)O[C@H](CC)[C@@](C)(O)[C@H](O)[C@@H](C)N(C)C[C@H](C)C[C@@]2(C)O)[C@@H]1O [Compound [15]]
[7]
  potency for CSCs compared to azithromycin alone: improved
  selectivity for CSCs compared to azithromycin alone: improved
